Data set [1] concerns citrus red mite (Panonychus citri). The data set is described as follows: Residual effect test for citrus red mite. The conditions noted are these: Table 4, spray solution 100 ppm, 48 hours. Format: in vivo. The procedure:
Residual Effect Test for Citrus Red Mite (Panonychus citri)
A 5% emulsion (or 25% wettable powder) of a compound of the invention was diluted with water containing a spreading agent to give a solution of the compound with prescribed concentration. The solution was sprayed over each orange planted in a pot in an amount of 250 ml/pot, using a rotary sprinkler, and the pot were left in the open air. After the prescribed days, the leaves of orange plants were punched into 3.0 cm-diameter discs, using a leaf punch, and put onto moistured filter paper in a 7 cm-diameter styrol cup. Ten larvae of citrus red mite (Panonychus citri) were put to each leaf. Then, the cups were stored in a thermostatic chamber at 25° C. After 48 hours passed, the mites in each cup were observed, and mortality of the mites was determined according to the same equation as in Test Example 1. Each compound was tested in that manner for four groups of dishes.
In the test, the following Compound A described in WO97/40009 was used as a comparative compound. [drawing 35]

Data set [2] deals with two-spotted spider mites (Tetranychus urticae). The data set is described as follows: Acaricidal test for two-spotted spider mites. Format: in vivo. As to conditions: 500 ppm solution sprayed 2 ml/cup on larvae on kidney bean leaf discs; 25° C.; after 96 hours. The procedure:
[Test Example 1] Acaricidal Test For Two-spotted Spider Mites (Tetranychus urticae)
The leaves of kidney bean plants were punched into 3.0 cm-diameter discs, using a leaf punch, and put onto moistured filter paper in a 7 cm-diameter styrol cup. Ten larvae of two-spotted spider mites (Tetranychus urticae) were put to each leaf. A 5% emulsion (or 25% wettable powder) of a compound of the invention was diluted with water containing a spreading agent to give a 500 ppm solution of the compound. The solution was sprayed over each cup in an amount of 2 ml/cup, using a rotary sprinkler, and the cups were stored in a thermostatic chamber at 25° C. After 96 hours passed, the mites in each cup were observed, and mortality of the mites was determined according to the following equation. Each compound was tested in that manner for two groups of dishes.
Mortality (%)=[number of insect killed/(number of insect killed+number of living insect)]×100

One may read the melting point as the temperature, or range, at which the solid turns liquid. The mortality is the share of the test organisms that died. Read a high mortality as a strong lethal effect.

The compound `Cc1nc(C)c(C(O)=C(C#N)c2nn(-c3ccccc3)nc2C)s1` [Compound No. 20, 3-(2,4-Dimethylthiazol-5-yl)-3-hydroxy-2-(5-methyl-2-phenyl-1,2,3-triazol4-yl)acrylonitrile] yielded a melting point of 117 to 118 °C.
For the compound `Cc1nn(-c2ccccc2)nc1/C(C#N)=C(\OC(=O)C(C)(C)C)c1c(C(F)(F)F)nn(C)c1Cl` [Compound A], the mortality at 100 ppm in data set [1] (2 days left in the open air after spraying) is 17.5%; in data set [1] (4 days left in the open air after spraying), 40%.
`COc1ccccc1-n1nc(C)c(C(C#N)=C(OC(=O)C(C)(C)C)c2c(Cl)c(C)nn2C)n1` (mixture of isomers) [compound 62]: the mortality in data set [2] is given as at least 80%.

For the origin of these results see patent publication US6642234B1, “Acrylonitrile compounds” (Nissan Chemical Industries, Ltd., priority 1998, dated 2003).
